From PubChem BioAssay AID256 (DTP/NCI, 2004)
Several values for one entry are separate records, joined by “and”; a condition that tells them apart may be missing. Equal values may be shown once. Toxic doses and inconclusive results are not listed.

Tested on: CD2F1 mice, L1210 leukemia ip, survival T/C
Experiment: NCI In Vivo Anticancer Drug Screen. Data for tumor model L1210 Leukemia (intraperitoneal) in CD2F1 (CDF1) mice
Details: higher = longer survival
Description: The antitumor activity of compounds was measured in mice bearing transplantable tumors. Survival or tumor size were measured and the results are expressed as the measurement made in the treated group (T) divided by the measurement made in the vehicle treated control group (C). The tumor model used in this assay is L1210 Leukemia (intraperitoneal) in CD2F1 (CDF1) mice

[1] = endpoint: mean survival time, dose: 100.0 mg/kg/injection, schedule: Q01DX001 (ip), vehicle: saline
[2] = endpoint: mean survival time, dose: 100.0 mg/kg/injection, schedule: Q04DX003 (ip), vehicle: saline
[3] = endpoint: mean survival time, dose: 200.0 mg/kg/injection, schedule: Q04DX003 (ip), vehicle: saline
[4] = endpoint: mean survival time, dose: 400.0 mg/kg/injection, schedule: Q01DX001 (ip), vehicle: saline
[5] = endpoint: mean survival time, dose: 400.0 mg/kg/injection, schedule: Q04DX003 (ip), vehicle: saline
[6] = endpoint: mean survival time, dose: 25.0 mg/kg/injection, schedule: Q04DX003 (ip), vehicle: saline with Tween-80
[7] = endpoint: mean survival time, dose: 100.0 mg/kg/injection, schedule: Q04DX003 (ip), vehicle: saline with Tween-80
[8] = endpoint: mean survival time, dose: 200.0 mg/kg/injection, schedule: Q04DX003 (ip), vehicle: saline with Tween-80
[9] = endpoint: mean survival time, dose: 400.0 mg/kg/injection, schedule: Q04DX003 (ip), vehicle: saline with Tween-80
[10] = endpoint: mean survival time, dose: 100.0 mg/kg/injection, schedule: Q01DX009 (ip), vehicle: saline with Tween-80
[11] = endpoint: mean survival time, dose: 200.0 mg/kg/injection, schedule: Q01DX009 (ip), vehicle: saline with Tween-80
[12] = endpoint: mean survival time, dose: 400.0 mg/kg/injection, schedule: Q01DX009 (ip), vehicle: saline with Tween-80
[13] = endpoint: mean survival time, dose: 5.0 mg/kg/injection, schedule: Q04DX003 (ip), vehicle: saline with Tween-80

## CC(C)=CC1C(C(=O)OCc2ccc(C)cc2C)C1(C)C (configuration not stated)
endpoint: mean survival time, dose: 50.0 mg/kg/injection, schedule: Q01DX001 (ip), vehicle: saline
  T/C: 94 % of control
[1]
  T/C: 91 % of control
endpoint: mean survival time, dose: 100.0 mg/kg/injection, schedule: Q01DX009 (ip), vehicle: saline
  T/C: 96 % of control
[2]
  T/C: 87 % of control
endpoint: mean survival time, dose: 200.0 mg/kg/injection, schedule: Q01DX009 (ip), vehicle: saline
  T/C: 96 % of control
[3]
  T/C: 87 % of control
[4]
  T/C: 100 % of control
endpoint: mean survival time, dose: 400.0 mg/kg/injection, schedule: Q01DX009 (ip), vehicle: saline
  T/C: 102 % of control
[5]
  T/C: 94 % of control

## O=C1O/C(=C\c2ccccc2)c2ccccc21
[2]
  T/C: 104 % of control
[3]
  T/C: 104 % of control
[5]
  T/C: 98 % of control

## COC(=O)c1cc2c3ccccc3ncc2c2ccccc12
[6]
  T/C: 89 % of control
endpoint: mean survival time, dose: 50.0 mg/kg/injection, schedule: Q04DX003 (ip), vehicle: saline with Tween-80
  T/C: 89 % of control
[7]
  T/C: 87 % of control
[8]
  T/C: 89 % of control
[9]
  T/C: 89 % of control

## C=C(C)CNC1=C(C)C(=O)C2=C(C1=O)[C@@H](COC(N)=O)[C@]1(O)[C@H]3[C@@H](CN21)N3C (some centres not stated)
endpoint: mean survival time, dose: 1.5 mg/kg/injection, schedule: Q01DX001 (ip), vehicle: water
  T/C: 97 % of control
endpoint: mean survival time, dose: 3.0 mg/kg/injection, schedule: Q01DX001 (ip), vehicle: water
  T/C: 97 % of control
endpoint: mean survival time, dose: 6.0 mg/kg/injection, schedule: Q01DX001 (ip), vehicle: water
  T/C: 103 % of control
endpoint: mean survival time, dose: 12.0 mg/kg/injection, schedule: Q01DX001 (ip), vehicle: water
  T/C: 98 % of control
endpoint: mean survival time, dose: 24.0 mg/kg/injection, schedule: Q01DX001 (ip), vehicle: water
  T/C: 106 % of control
endpoint: mean survival time, dose: 100.0 mg/kg/injection, schedule: Q01DX001 (ip), vehicle: distilled water + Tween-80
  T/C: 156 % of control

## O=C(O)CCC1C2C=CC(C2)C1C(=O)O (configuration not stated)
[7]
  T/C: 96 % of control
[8]
  T/C: 96 % of control
[9]
  T/C: 98 % of control

## O=C1CCC(=O)N1CCC1=NCCc2cc(OCc3ccccc3)ccc21
[10]
  T/C: 101 % of control
[7]
  T/C: 102 % of control
[11]
  T/C: 94 % of control
[8]
  T/C: 94 % of control
[12]
  T/C: 97 % of control
[9]
  T/C: 90 % of control

## NC1CCCCC1N.O=S(=O)([O-])CCCN1CCN(CCO)CC1.O=S(=O)([O-])CCCN1CCN(CCO)CC1.[Pt+4]
endpoint: median survival time, dose: 0.78 mg/kg/injection, schedule: Q04DX003 (ip), vehicle: saline
  T/C: 121 % of control
endpoint: median survival time, dose: 1.56 mg/kg/injection, schedule: Q04DX003 (ip), vehicle: saline
  T/C: 120 % of control
endpoint: median survival time, dose: 6.25 mg/kg/injection, schedule: Q04DX003 (ip), vehicle: saline
  T/C: 168 % of control and 175 % of control
endpoint: median survival time, dose: 12.5 mg/kg/injection, schedule: Q04DX003 (ip), vehicle: saline
  T/C: 212 % of control and 487 % of control
endpoint: median survival time, dose: 25.0 mg/kg/injection, schedule: Q04DX003 (ip), vehicle: saline
  T/C: 256 % of control and 487 % of control
endpoint: median survival time, dose: 50.0 mg/kg/injection, schedule: Q04DX003 (ip), vehicle: saline
  T/C: 151 % of control and 170 % of control

## Nc1ncnc2c1nc(Cl)n2C1OC2COP(=O)(O)OC2C1O (configuration not stated)
endpoint: mean survival time, dose: 12.5 mg/kg/injection, schedule: Q01DX005 (ip), vehicle: water
  T/C: 96 % of control
endpoint: mean survival time, dose: 25.0 mg/kg/injection, schedule: Q01DX005 (ip), vehicle: water
  T/C: 100 % of control
endpoint: mean survival time, dose: 50.0 mg/kg/injection, schedule: Q01DX005 (ip), vehicle: water
  T/C: 100 % of control

## CCN(CC(C)Cl)c1ccc(NC(=O)c2cc(N3CC3)c([N+](=O)[O-])cc2[N+](=O)[O-])cc1 (configuration not stated)
endpoint: mean survival time, dose: 22.0 mg/kg/injection, schedule: Q01DX001 (ip), vehicle: Klucel (hydroxypropylcellulose) (HPC)
  T/C: 97 % of control
endpoint: mean survival time, dose: 44.0 mg/kg/injection, schedule: Q01DX001 (ip), vehicle: Klucel (hydroxypropylcellulose) (HPC)
  T/C: 97 % of control
endpoint: mean survival time, dose: 88.0 mg/kg/injection, schedule: Q01DX001 (ip), vehicle: Klucel (hydroxypropylcellulose) (HPC)
  T/C: 103 % of control

## c1ccc2c[n+](CCc3c[nH]c4ccccc34)ccc2c1
endpoint: mean survival time, dose: 25.0 mg/kg/injection, schedule: Q04DX002 (ip), vehicle: other
  T/C: 100 % of control
endpoint: mean survival time, dose: 50.0 mg/kg/injection, schedule: Q04DX002 (ip), vehicle: other
  T/C: 104 % of control

## OC(CCC(O)c1ccccc1)c1ccccc1 (configuration not stated)
endpoint: mean survival time, dose: 75.0 mg/kg/injection, schedule: Q01DX001 (ip), vehicle: saline sonified
  T/C: 98 % of control
endpoint: mean survival time, dose: 150.0 mg/kg/injection, schedule: Q01DX001 (ip), vehicle: saline sonified
  T/C: 96 % of control
endpoint: mean survival time, dose: 300.0 mg/kg/injection, schedule: Q01DX001 (ip), vehicle: saline sonified
  T/C: 94 % of control

## CC(C)=CC(=O)CC(O)(C(F)(F)F)C(F)(F)Cl (configuration not stated)
endpoint: mean survival time, dose: 100.0 mg/kg/injection, schedule: Q04DX003 (ip), vehicle: Klucel (hydroxypropylcellulose) (HPC)
  T/C: 98 % of control
endpoint: mean survival time, dose: 200.0 mg/kg/injection, schedule: Q04DX003 (ip), vehicle: Klucel (hydroxypropylcellulose) (HPC)
  T/C: 93 % of control

## CC1OC(n2ccc(=O)[nH]c2=O)C2OC(C)(C)OC2C1=O (configuration not stated)
endpoint: median survival time, dose: 12.5 mg/kg/injection, schedule: Q01DX005 (ip), vehicle: saline with Tween-80
  T/C: 109 % of control
endpoint: median survival time, dose: 25.0 mg/kg/injection, schedule: Q01DX005 (ip), vehicle: saline with Tween-80
  T/C: 97 % of control
endpoint: median survival time, dose: 50.0 mg/kg/injection, schedule: Q01DX005 (ip), vehicle: saline with Tween-80
  T/C: 97 % of control
endpoint: median survival time, dose: 100.0 mg/kg/injection, schedule: Q01DX005 (ip), vehicle: saline with Tween-80
  T/C: 101 % of control
endpoint: median survival time, dose: 200.0 mg/kg/injection, schedule: Q01DX005 (ip), vehicle: saline with Tween-80
  T/C: 101 % of control

## CC([NH-])C[NH-].[Cl][Pt+2][Cl] (configuration not stated)
endpoint: mean survival time, dose: 0.31 mg/kg/injection, schedule: Q01DX009 (ip), vehicle: saline with Tween-80
  T/C: 105 % of control
endpoint: mean survival time, dose: 0.62 mg/kg/injection, schedule: Q01DX009 (ip), vehicle: saline with Tween-80
  T/C: 107 % of control
endpoint: mean survival time, dose: 1.25 mg/kg/injection, schedule: Q01DX009 (ip), vehicle: saline with Tween-80
  T/C: 112 % of control
endpoint: mean survival time, dose: 2.5 mg/kg/injection, schedule: Q01DX009 (ip), vehicle: saline with Tween-80
  T/C: 105 % of control
endpoint: mean survival time, dose: 2.5 mg/kg/injection, schedule: Q04DX003 (ip), vehicle: saline with Tween-80
  T/C: 115 % of control
endpoint: mean survival time, dose: 5.0 mg/kg/injection, schedule: Q01DX009 (ip), vehicle: saline with Tween-80
  T/C: 86 % of control
[13]
  T/C: 115 % of control

## CSc1nccc2c1ncn2C1OC(CO)C(O)C1O (configuration not stated)
[1]
  T/C: 98 % of control
endpoint: mean survival time, dose: 200.0 mg/kg/injection, schedule: Q01DX001 (ip), vehicle: saline
  T/C: 104 % of control
[4]
  T/C: 104 % of control

## Cc1cc(O)c2c(c1)C(=O)c1cccc(O)c1C2=O
endpoint: mean survival time, dose: 6.25 mg/kg/injection, schedule: Q01DX001 (ip), vehicle: saline
  T/C: 115 % of control
endpoint: mean survival time, dose: 12.5 mg/kg/injection, schedule: Q01DX001 (ip), vehicle: saline
  T/C: 112 % of control
endpoint: mean survival time, dose: 25.0 mg/kg/injection, schedule: Q01DX001 (ip), vehicle: saline
  T/C: 102 % of control

## O=c1[nH]c(-c2ccccc2)nc(-c2ccccc2)c1CCO
[7]
  T/C: 95 % of control
[8]
  T/C: 91 % of control
[9]
  T/C: 106 % of control

## Clc1ccc(C[P+](c2ccccc2)(c2ccccc2)c2ccccc2)c(Cl)c1
endpoint: mean survival time, dose: 5.0 mg/kg/injection, schedule: Q01DX009 (ip), vehicle: saline sonified
  T/C: 103 % of control
[13]
  T/C: 92 % of control
endpoint: mean survival time, dose: 10.0 mg/kg/injection, schedule: Q04DX003 (ip), vehicle: saline with Tween-80
  T/C: 96 % of control
endpoint: mean survival time, dose: 12.5 mg/kg/injection, schedule: Q04DX003 (ip), vehicle: saline with Tween-80
  T/C: 100 % of control
endpoint: mean survival time, dose: 20.0 mg/kg/injection, schedule: Q04DX003 (ip), vehicle: saline with Tween-80
  T/C: 108 % of control
[6]
  T/C: 93 % of control

## COc1cc2c(cc1OC)C(=O)C(C)(c1ccccc1)NC2 (configuration not stated)
[7]
  T/C: 96 % of control
[8]
  T/C: 96 % of control
[9]
  T/C: 94 % of control

## CN1C=NN(C)C=N1
endpoint: mean survival time, dose: 75.0 mg/kg/injection, schedule: Q01DX001 (ip), vehicle: saline
  T/C: 100 % of control
endpoint: mean survival time, dose: 150.0 mg/kg/injection, schedule: Q01DX001 (ip), vehicle: saline
  T/C: 97 % of control
endpoint: mean survival time, dose: 300.0 mg/kg/injection, schedule: Q01DX001 (ip), vehicle: saline
  T/C: 108 % of control

## CCOC(=O)c1cnc(SCc2ccccc2)nc1N
[10]
  T/C: 92 % of control
[7]
  T/C: 100 % of control
[11]
  T/C: 94 % of control
[8]
  T/C: 100 % of control
[12]
  T/C: 96 % of control
[9]
  T/C: 97 % of control

## CCCCNC(=S)N(CCCC)CCCC
[10]
  T/C: 102 % of control
[11]
  T/C: 87 % of control
